Assay results as given in ChEMBL document CHEMBL4602617, “Discovery and optimization of heteroaryl piperazines as potent and selective PI3Kδ inhibitors” (Bioorg Med Chem Lett, 2020).
pIC50: −log10 of the molar value.

Columns and labels:
[1] = biological target: Dual specificity protein kinase CLK1 (Homo sapiens, UniProt P49759); experiment: Inhibition of recombinant human GST-tagged CLK1 catalytic domain (129 to 484 residues) expressed in Escherichia coli expression system using serine/threonine-9 peptide as substrate incubated for 60 mins in presence of ATP by Z'-LYTE assay
[2] = Oral bioavailability in dog at 0.5 mg/kg; format: ADME, organism-based, Canis lupus familiaris; conditions: in vivo
[3] = biological target: Mitogen-activated protein kinase 14 (Homo sapiens, UniProt Q16539); experiment: Inhibition of recombinant full length human p38alpha expressed in Escherichia coli at 10 uM using MBP as substrate after 30 mins by radiometric scintillation analysis relative to control
Chain of Mitogen-activated protein kinase 14 (Q16539 whole entry, the tested form may be a part): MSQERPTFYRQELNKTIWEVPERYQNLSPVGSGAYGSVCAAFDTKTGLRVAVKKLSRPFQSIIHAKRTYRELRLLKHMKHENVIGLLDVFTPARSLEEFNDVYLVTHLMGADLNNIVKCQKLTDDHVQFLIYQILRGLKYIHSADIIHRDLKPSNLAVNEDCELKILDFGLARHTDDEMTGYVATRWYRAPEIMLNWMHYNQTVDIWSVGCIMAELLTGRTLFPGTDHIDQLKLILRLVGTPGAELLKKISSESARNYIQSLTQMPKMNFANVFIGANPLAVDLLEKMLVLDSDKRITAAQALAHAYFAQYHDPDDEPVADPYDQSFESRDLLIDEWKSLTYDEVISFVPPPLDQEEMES

[4] = biological target: Serine/threonine-protein kinase Sgk1 (Homo sapiens, UniProt O00141); experiment: Inhibition of recombinant human GST-tagged SGK1 catalytic domain (60 to 431 residues) expressed in baculovirus expression system using serine/threonine-6 peptide as substrate incubated for 60 mins in presence of ATP by Z'-LYTE assay
[5] = biological target: Misshapen-like kinase 1 (Homo sapiens, UniProt Q8N4C8); experiment: Inhibition of recombinant human MINK1 catalytic domain expressed in baculovirus expression system using Ser/Thr 07 peptide as substrate after 1 hr in presence of ATP by Z'LYTE assay
[6] = biological target: Dual specificity mitogen-activated protein kinase kinase 2 (Homo sapiens, UniProt P36507); experiment: Inhibition of recombinant full length human His-tagged MEK2 expressed in baculovirus expression system using serine/threonine-3 peptide as substrate incubated for 60 mins in presence of ATP by Z'-LYTE assay
Chain of Dual specificity mitogen-activated protein kinase kinase 2 (P36507 whole entry): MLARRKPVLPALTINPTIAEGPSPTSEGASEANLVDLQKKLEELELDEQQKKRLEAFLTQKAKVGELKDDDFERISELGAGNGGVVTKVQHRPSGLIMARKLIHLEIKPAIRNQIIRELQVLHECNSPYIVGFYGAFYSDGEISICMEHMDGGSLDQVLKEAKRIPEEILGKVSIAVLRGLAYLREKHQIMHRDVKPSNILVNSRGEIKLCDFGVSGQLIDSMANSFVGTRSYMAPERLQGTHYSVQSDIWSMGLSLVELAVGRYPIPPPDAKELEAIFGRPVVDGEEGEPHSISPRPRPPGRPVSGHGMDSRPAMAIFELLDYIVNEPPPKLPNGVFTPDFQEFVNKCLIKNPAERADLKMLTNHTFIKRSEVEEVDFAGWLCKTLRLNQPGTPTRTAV

[7] = biological target: B2 bradykinin receptor (Homo sapiens) (UniProt P30411); experiment: Displacement of [3H]bradykinin from recombinant full length human recombinant bradykinin B2 receptor expressed in Chem-1 cells at 10 uM measured after 60 mins by radiometric scintillation analysis relative to control; format: cell-based
Chain of B2 bradykinin receptor (Homo sapiens) (P30411 whole entry): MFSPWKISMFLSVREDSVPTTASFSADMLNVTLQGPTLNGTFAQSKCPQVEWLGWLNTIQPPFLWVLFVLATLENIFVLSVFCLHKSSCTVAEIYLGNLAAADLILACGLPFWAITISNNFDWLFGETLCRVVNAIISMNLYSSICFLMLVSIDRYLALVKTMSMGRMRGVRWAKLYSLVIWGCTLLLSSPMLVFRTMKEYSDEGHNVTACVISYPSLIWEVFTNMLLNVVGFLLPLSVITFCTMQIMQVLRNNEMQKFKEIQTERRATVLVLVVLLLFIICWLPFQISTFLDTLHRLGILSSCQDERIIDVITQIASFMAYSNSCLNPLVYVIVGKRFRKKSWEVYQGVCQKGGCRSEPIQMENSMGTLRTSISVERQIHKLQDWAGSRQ

[8] = biological target: Tyrosine-protein kinase Fes/Fps (Homo sapiens, UniProt P07332); experiment: Inhibition of recombinant His-tagged full length human FES expressed in baculovirus expression system using Tyr 01 peptide as substrate after 1 hr by Z'-LYTE assay
Chain of Tyrosine-protein kinase Fes/Fps (P07332 whole entry): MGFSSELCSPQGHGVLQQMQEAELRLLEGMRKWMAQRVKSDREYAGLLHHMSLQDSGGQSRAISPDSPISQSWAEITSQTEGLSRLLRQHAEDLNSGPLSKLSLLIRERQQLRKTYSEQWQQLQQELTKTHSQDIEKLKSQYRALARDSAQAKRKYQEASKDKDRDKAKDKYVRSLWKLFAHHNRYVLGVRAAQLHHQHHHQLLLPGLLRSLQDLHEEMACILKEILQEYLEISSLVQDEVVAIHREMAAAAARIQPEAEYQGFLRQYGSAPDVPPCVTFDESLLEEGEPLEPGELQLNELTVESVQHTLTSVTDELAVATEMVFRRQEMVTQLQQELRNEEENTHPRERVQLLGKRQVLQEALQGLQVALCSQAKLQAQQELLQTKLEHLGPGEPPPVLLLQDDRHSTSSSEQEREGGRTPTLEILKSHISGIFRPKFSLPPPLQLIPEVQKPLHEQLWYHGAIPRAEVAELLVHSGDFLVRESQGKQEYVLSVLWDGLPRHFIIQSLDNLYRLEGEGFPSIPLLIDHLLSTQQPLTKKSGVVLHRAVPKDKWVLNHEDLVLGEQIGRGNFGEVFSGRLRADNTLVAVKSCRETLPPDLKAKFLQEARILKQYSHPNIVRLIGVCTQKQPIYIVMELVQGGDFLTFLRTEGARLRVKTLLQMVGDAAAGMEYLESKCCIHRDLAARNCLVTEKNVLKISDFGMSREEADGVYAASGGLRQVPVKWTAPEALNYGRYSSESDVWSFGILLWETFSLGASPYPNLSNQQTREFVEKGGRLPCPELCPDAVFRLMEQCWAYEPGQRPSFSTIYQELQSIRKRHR

[9] = biological target: Inhibitor of nuclear factor kappa-B kinase subunit beta (Homo sapiens, UniProt O14920); experiment: Inhibition of recombinant human full-length GST-tagged IKBKB expressed in baculovirus expression system using FRET-labeled Ser/Thr 05 peptide as substrate measured after 1 hr in presence of ATP by Z'-lyte assay
[10] = biological target: Prostaglandin E2 receptor EP3 subtype (Homo sapiens) (UniProt P43115); experiment: Inhibition of human prostanoid EP3 receptor at 10 uM relative to control
[11] = biological target: Receptor-type tyrosine-protein kinase FLT3 (Homo sapiens, UniProt P36888, D835Y); experiment: Inhibition of recombinant human His-tagged FLT3 D835Y mutant cytoplasmic domain expressed in baculovirus expression system after 1 using tyrosine 2 as substrate after 1 hr in presence of ATP by ZYLTE assay
[12] = biological target: G protein-coupled receptor kinase 4 (Homo sapiens, UniProt P32298); experiment: Inhibition of recombinant full length human GST-tagged GRK4 expressed in baculovirus expression system using serine/threonine-16 peptide as substrate incubated for 60 mins in presence of ATP by Z'-LYTE assay
[13] = biological target: CDK7/Cyclin H/MNAT1 (Homo sapiens, UniProt P50613); experiment: Inhibition of recombinant full length human His-tagged CDK7/CyclinH/MAT1 expressed in baculovirus expression system using CDK7/9tide peptide as substrate incubated for 60 mins in presence of ATP by Adapta assay
Chain of CDK7/Cyclin H/MNAT1 (P51946 whole entry): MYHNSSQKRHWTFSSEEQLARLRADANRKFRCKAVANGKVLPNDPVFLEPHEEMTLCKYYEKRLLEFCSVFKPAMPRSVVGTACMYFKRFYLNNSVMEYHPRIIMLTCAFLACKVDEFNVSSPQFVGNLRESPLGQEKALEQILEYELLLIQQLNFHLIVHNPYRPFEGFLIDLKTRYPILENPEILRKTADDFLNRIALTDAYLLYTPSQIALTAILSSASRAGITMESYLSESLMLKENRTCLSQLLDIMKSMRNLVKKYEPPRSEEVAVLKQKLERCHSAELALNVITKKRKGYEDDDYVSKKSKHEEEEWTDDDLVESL
Chain of CDK7/Cyclin H/MNAT1 (P50613 whole entry): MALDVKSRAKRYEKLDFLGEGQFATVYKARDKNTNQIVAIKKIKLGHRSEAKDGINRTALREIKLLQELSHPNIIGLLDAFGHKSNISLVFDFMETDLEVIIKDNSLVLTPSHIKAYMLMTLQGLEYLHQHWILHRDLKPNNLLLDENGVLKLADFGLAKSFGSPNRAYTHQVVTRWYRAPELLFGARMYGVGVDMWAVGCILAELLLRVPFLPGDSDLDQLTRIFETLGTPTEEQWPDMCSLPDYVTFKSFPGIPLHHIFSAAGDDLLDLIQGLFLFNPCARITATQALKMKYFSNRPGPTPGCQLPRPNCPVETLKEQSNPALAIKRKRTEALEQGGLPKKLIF
Chain of CDK7/Cyclin H/MNAT1 (P51948 whole entry, further chain): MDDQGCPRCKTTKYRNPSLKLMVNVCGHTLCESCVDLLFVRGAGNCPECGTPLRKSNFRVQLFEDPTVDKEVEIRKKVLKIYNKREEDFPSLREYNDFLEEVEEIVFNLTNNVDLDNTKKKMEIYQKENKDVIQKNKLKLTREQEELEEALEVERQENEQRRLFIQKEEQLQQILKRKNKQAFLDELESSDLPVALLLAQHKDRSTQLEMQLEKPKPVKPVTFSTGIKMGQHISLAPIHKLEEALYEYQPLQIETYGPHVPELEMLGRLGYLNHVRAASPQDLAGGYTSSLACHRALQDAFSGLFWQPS

[14] = biological target: AMPK alpha2/beta1/gamma1 (Homo sapiens, UniProt P54619+P54646+Q9Y478); experiment: Inhibition of recombinant full length GST/His-tagged human AMPK alpha2/beta1/gamma1 expressed in baculovirus expression system using Ser/Thr-23 peptide as substrate incubated for 60 mins in presence of ATP by Z'-LYTE assay
[15] = biological target: Tyrosine-protein kinase Yes (Homo sapiens, UniProt P07947); experiment: Inhibition of full length recombinant GST-tagged human YES1 expressed in baculovirus expression system using tyr 02 peptide as substrate after 1 hr in presence of ATP by Z'-LYTE assay
[16] = biological target: Mitogen-activated protein kinase kinase kinase 9 (Homo sapiens, UniProt P80192); experiment: Inhibition of recombinant human GST-tagged MAP3K9 catalytic domain expressed in baculovirus expression system using serine/threonine-7 peptide as substrate incubated for 60 mins in presence of ATP by Z'-LYTE assay
[17] = biological target: MAP kinase-activated protein kinase 3 (Homo sapiens, UniProt Q16644); experiment: Inhibition of recombinant His-tagged human full length MAPKAPK3 expressed in baculovirus expression system using Ser/Thr-04 peptide as substrate after 1 hr in presence of ATP by Z'LYTE assay
[18] = biological target: Platelet-derived growth factor receptor beta (Homo sapiens, UniProt P09619); experiment: Inhibition of recombinant human His-tagged PDGFRbeta cytoplasmic domain expressed in baculovirus expression system using tyrosine-4 peptide as substrate incubated for 60 mins in presence of ATP by Z'-LYTE assay
[19] = biological target: Platelet-derived growth factor receptor alpha (Homo sapiens, UniProt P16234, D842V); experiment: Inhibition of recombinant human GST-tagged PDGFRalpha D842V cytoplasmic domain expressed in baculovirus expression system using tyrosine-4 peptide as substrate incubated for 60 mins in presence of ATP by Z'-LYTE assay
Chain of Platelet-derived growth factor receptor alpha (P16234 24-1089 D842V limits assumed): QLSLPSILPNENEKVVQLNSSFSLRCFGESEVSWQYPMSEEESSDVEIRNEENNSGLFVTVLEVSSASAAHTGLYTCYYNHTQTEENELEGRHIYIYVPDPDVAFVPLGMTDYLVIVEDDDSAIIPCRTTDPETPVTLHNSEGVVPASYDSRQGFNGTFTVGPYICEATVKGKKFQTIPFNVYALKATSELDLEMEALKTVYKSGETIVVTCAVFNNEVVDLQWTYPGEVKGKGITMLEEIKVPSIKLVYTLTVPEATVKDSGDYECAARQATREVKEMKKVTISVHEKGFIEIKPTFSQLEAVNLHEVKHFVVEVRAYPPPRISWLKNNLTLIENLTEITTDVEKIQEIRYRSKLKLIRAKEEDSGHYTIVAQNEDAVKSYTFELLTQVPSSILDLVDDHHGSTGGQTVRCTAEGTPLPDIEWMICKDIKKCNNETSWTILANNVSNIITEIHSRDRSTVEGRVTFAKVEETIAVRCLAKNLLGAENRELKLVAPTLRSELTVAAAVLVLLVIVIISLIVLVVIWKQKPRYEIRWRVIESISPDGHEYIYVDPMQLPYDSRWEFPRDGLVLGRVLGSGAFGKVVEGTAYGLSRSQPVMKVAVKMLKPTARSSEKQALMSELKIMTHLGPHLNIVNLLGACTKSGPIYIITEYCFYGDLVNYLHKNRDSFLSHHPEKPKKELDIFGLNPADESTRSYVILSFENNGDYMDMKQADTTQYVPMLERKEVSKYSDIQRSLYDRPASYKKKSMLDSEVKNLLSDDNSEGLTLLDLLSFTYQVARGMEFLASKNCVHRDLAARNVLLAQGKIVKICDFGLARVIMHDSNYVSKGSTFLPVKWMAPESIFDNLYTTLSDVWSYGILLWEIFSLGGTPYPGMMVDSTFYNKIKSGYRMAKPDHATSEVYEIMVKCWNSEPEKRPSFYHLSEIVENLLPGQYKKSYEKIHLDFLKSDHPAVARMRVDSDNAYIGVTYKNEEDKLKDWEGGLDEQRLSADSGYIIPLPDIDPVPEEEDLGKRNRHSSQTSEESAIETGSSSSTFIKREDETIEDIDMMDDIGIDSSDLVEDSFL

[20] = organism: Mesocricetus auratus; experiment: Displacement of [3H]glyburide from KATP receptor in HIT-T15 Syrian hamster pancreatic B cell membranes at 10 uM after 120 mins by radiometric scintillation analysis relative to control
[21] = biological target: Melanin-concentrating hormone receptor 1 (Homo sapiens) (UniProt Q99705); experiment: Displacement of [125I]Tyr-S36057 from full length human recombinant SLC1 receptor expressed in CHO-K1 cells at 10 uM measured after 120 mins by radiometric scintillation analysis relative to control; format: cell-based
[22] = biological target: Leukocyte tyrosine kinase receptor (Homo sapiens, UniProt P29376); experiment: Inhibition of recombinant human GST-tagged LTK (450 to 864 residues) cytoplasmic domain expressed in baculovirus expression system using tyrosine-6 peptide as substrate incubated for 60 mins in presence of ATP by Z'-LYTE assay
Chain of Leukocyte tyrosine kinase receptor (P29376 whole entry, the tested form may be a part): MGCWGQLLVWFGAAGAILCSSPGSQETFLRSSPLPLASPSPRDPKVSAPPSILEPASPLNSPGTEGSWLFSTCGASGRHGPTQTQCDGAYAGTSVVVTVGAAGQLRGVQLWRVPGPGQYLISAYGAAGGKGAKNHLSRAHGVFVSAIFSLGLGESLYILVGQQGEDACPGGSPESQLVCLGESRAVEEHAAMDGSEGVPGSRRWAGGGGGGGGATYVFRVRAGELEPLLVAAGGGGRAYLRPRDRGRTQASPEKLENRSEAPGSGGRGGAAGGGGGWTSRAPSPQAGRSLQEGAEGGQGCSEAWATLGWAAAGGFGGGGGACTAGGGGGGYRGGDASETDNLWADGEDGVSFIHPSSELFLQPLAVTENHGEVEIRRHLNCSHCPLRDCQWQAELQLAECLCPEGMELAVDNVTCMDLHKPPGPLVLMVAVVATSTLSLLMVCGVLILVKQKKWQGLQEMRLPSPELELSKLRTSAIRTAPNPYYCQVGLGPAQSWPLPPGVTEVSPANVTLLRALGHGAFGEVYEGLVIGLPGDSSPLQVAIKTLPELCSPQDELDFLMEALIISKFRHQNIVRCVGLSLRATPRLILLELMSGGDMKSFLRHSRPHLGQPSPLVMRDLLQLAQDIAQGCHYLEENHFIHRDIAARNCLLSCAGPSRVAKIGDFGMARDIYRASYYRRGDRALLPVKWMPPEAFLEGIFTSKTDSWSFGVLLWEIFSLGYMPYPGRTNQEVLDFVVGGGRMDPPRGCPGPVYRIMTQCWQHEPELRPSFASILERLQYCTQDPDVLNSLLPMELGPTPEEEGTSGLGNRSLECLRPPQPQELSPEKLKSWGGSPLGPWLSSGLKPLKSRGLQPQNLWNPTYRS

[23] = biological target: Tyrosine-protein kinase receptor TYRO3 (Homo sapiens, UniProt Q06418); experiment: Inhibition of recombinant human GST-tagged RSE catalytic domain (451 to 890 residues) expressed in baculovirus expression system using tyrosine-2 peptide as substrate incubated for 60 mins in presence of ATP by Z'-LYTE assay
[24] = biological target: Proto-oncogene tyrosine-protein kinase receptor Ret (Homo sapiens, UniProt P07949); experiment: Inhibition of recombinant human GST-tagged RET cytoplasmic domain expressed in baculovirus expression system using tyr02 peptide as substrate incubated for 60 mins in presence of ATP by Z'-LYTE assay

C[C@@H]1C[C@H]1C(=O)N1CCN(c2cnc(C#N)c(-c3cnn(C)c3)n2)C[C@H]1C
pIC50 [1]: < 4.00 | bioavailability [2]: 100% | inhibition [3]: 19% | pIC50 [4]: < 4.00 | pIC50 [5]: 4.59 | pIC50 [6]: < 4.00 | inhibition [7]: 6% | pIC50 [8]: < 4.00 | pIC50 [9]: < 4.00 | inhibition [10]: 7% | pIC50 [11]: < 4.00 | pIC50 [12]: 4.46 | pIC50 [13]: < 4.00 | pIC50 [14]: < 4.00 | pIC50 [15]: 4.43 | pIC50 [16]: < 4.00 | pIC50 [17]: 4.63 | pIC50 [18]: < 4.00 | pIC50 [19]: < 4.00 | inhibition [20]: -1% | inhibition [21]: -2% | pIC50 [22]: < 4.00 | pIC50 [23]: < 4.00 | pIC50 [24]: < 4.00
